Experimental findings from patent US20200157144A1, “ANTIMICROBIAL PEPTIDOMIMETICS” (priority 2017, published 2020) are described below.

Values after ≈ are worked out from the molar mass of the structure shown. Where two headings read alike, the source gives them in different places. Square brackets hold non-standard residues; d marks the D form. Peptide text beside a SMILES is read from it. dBip(4'-Cl) = N[C@H](Cc1ccc(-c2ccc(Cl)cc2)cc1)C(=O)O

Common to all, as to test: microbe, parasite or virus in culture
Experiment [1] concerns Mupirocin-resistant MRSA ATCC-BAA-1556. Format: cell-based, Staphylococcus aureus. The method, boiled down: (§1)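 Colonies from MH2 agar grown in cation-adjusted MH2 broth at 37° C to OD600 0.15-0.16, then diluted to ~1×10^6 CFU/mL and added to 2-fold compound dilutions (100 to 0.195 μM, duplicates). Plates incubated overnight at 35° C; OD600 measured to set the MIC.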
For experiment [2], the system named is Mupirocin-resistant MRSA ATCC-BAA-1708. Format: cell-based, Staphylococcus aureus. The settings on record: ATCC-BAA-1708; read-out: MIC. The method, boiled down:
as §1

For experiment [3], the system named is Mupirocin-susceptible MRSA ATCC-33592 (ST239). Format: cell-based, Staphylococcus aureus. The settings on record: ATCC-33592; read-out: MIC. In outline:
as §1

Experiment [4] deals with Mupirocin-susceptible MRSA ATCC-700699 (VISA). Format: cell-based, Staphylococcus aureus. The settings on record: ATCC-700699; read-out: MIC. The method, boiled down:
as §1

In experiment [5] the test system is Mupirocin-susceptible MRSA ATCC-BAA-2762 (EMRSA15, ST22). The experiment is classed as cell-based, Staphylococcus aureus. Conditions: ATCC-BAA-2762; read-out: MIC. In outline:
as §1

The subject of experiment [6] is Staphylococcus aureus ATCC 19636. The experiment is classed as cell-based. The settings on record: ATCC 19636. On the procedure: (§2) The antibacterial potency of Compound 34 was measured using the in vitro broth microdilution assay under assay conditions described by the Clinical and Laboratory Standards Institute. […] The test substance was dissolved in 100% DMSO (unless stated below), suspended completely by sonication or vortexing, diluted by 2-fold serial titrations in the same vehicle, for a total of 10 test concentrations (final concentrations: 100, 50, 25, 12.5, 6.25, 3.125, 1.56, 0.78, 0.39, 0.2 μM). A 4 μL aliquot of each dilution was added to 196 μL of broth medium seeded with the organism suspension in wells of a 96 well plate (bacterial count: 2-8×10^5 colony forming units/mL final). The final volume was 200 μL in each well and the final DMSO concentration was 2 percent. The incubation time is either 1 or 2 days at 36° C. All strains tested underwent aerobic respiration, except for ATCC BAA-1805 and ATCC 29399. Following incubation, the test plates were visually examined and wells were scored for growth or complete growth inhibition to define the minimum inhibitory concentration. Each test substance was evaluated in duplicate and the results below are the duplicate test values.

Experiment [7] deals with Staphylococcus aureus ATCC BAA-1717. Format: cell-based. Conditions: ATCC BAA-1717. On the procedure: as §2
The subject of experiment [8] is Staphylococcus epidermidis ATCC 12228. Format: cell-based. Conditions: ATCC 12228. On the procedure:
as §2

Another experiment concerns S. aureus ECL 2963646. The experiment is classed as cell-based. On the procedure: (§3) The antibacterial potency of Compound 34 was measured using the in vitro broth microdilution assay under assay conditions described by the Clinical and Laboratory Standards Institute. […] The test substance was dissolved in 100% DMSO (unless stated below), suspended completely by sonication or vortexing, diluted by 2-fold serial titrations in the same vehicle, for a total of 11 test concentrations. A 4 μL aliquot of each dilution was added to 196 μL of broth medium seeded with the organism suspension in wells of a 96 well plate (bacterial count: 2-8×10^5 colony forming units/mL final). The final volume was 200 μL in each well and the final DMSO concentration was 2%. The incubation time is 1 day at 36° C. All strains tested underwent aerobic respiration. Following incubation, the test plates were visually examined and wells were scored for growth or complete growth inhibition to define the minimum inhibitory concentration. Each test substance was evaluated in duplicate and the results below are the duplicate test values. Vehicle-control and an active reference agent were used as blank and positive controls, respectively.

For a further experiment, the system named is S. aureus NARSA VRS11b. Format: cell-based. On the procedure: as §3
For a further experiment, the system named is S. aureus NARSA VRS1. The experiment is classed as cell-based. On the procedure: as §3
A further experiment deals with S. aureus NARSA VRS2. Format: cell-based. On the procedure: as §3
The next experiment concerns S. aureus NARSA VRS3a. Format: cell-based. On the procedure:
as §3

As to `N=C(N)NCCC[C@@H](NC(=O)[C@@H](Cc1ccc(-c2ccc(Cl)cc2)cc1)NC(=O)[C@@H](CCCNC(=N)N)NC(=O)[C@H](N)Cc1ccc(-c2ccc(Cl)cc2)cc1)C(N)=O` [Compound 34] (H-[dBip(4'-Cl)][dR][dBip(4'-Cl)][dR]-NH2), the MIC in experiment [1] (Mupirocin-resistant MRSA ATCC-BAA-1556, cation-adjusted MH2 broth, overnight 35° C., OD600, read-out: MIC) came out at 3.125 µM (≈ 2.64 µg/mL); in experiment [2], 1.56 µM (≈ 1.32 µg/mL); in experiment [3], 3.125 µM (≈ 2.64 µg/mL); in experiment [4] it was 3.125 µM (≈ 2.64 µg/mL); in experiment [5] it was 3.125 µM (≈ 2.64 µg/mL); in experiment [6] it was 3.13 µM (≈ 2.64 µg/mL). In addition, the MIC in experiment [7] was found to be 3.13 µM (≈ 2.64 µg/mL); in experiment [8] it was 3.13 µM (≈ 2.64 µg/mL); in the experiment on S. aureus ECL 2963646 (ECL 2963646, read-out: MIC) it was 2.37 µM; with S. aureus ECL 2963646 (S. aureus ECL 2963646, CAMHB II), 2.0 µg/mL; with S. aureus NARSA VRS11b (NARSA VRS11b, read-out: MIC), 1.18 µM; against S. aureus NARSA VRS11b (S. aureus NARSA VRS11b, CAMHB II), 1.0 µg/mL. Further, the MIC with S. aureus NARSA VRS1 (NARSA VRS1, read-out: MIC) turned out to be 2.37 µM; with S. aureus NARSA VRS1 (S. aureus NARSA VRS1, CAMHB II) it was 2.0 µg/mL; with S. aureus NARSA VRS2 (NARSA VRS2, read-out: MIC), 2.37 µM; in the experiment on S. aureus NARSA VRS2 (S. aureus NARSA VRS2, CAMHB II), 2.0 µg/mL; with S. aureus NARSA VRS3a (NARSA VRS3a, read-out: MIC), 2.37 µM; against S. aureus NARSA VRS3a (S. aureus NARSA VRS3a, CAMHB II), 2.0 µg/mL. Further, the “improvement of bioactivity (lower MIC values) as compared to Compound 2” value in [1] (against Mupirocin-resistant MRSA strains) was “about 4 fold”.
